# Laboratory results as given in PubChem BioAssay (NCI).
#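 GI50 marks 50% less growth. TGI: total growth inhibition.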
# Legend:
# Test in all cases: DTP human tumour cell line panel, 384-well format
# T-47D breast = tested on: T-47D breast
# LOX IMVI melanoma = tested on: LOX IMVI melanoma
# K-562 leukemia = tested on: K-562 leukemia
# SK-MEL-5 melanoma = tested on: SK-MEL-5 melanoma
# MOLT-4 leukemia = tested on: MOLT-4 leukemia
# SNB-19 CNS = tested on: SNB-19 CNS
# NCI-H460 NSCLC = tested on: NCI-H460 NSCLC
# HOP-92 NSCLC = tested on: HOP-92 NSCLC
# HCT-116 colon = tested on: HCT-116 colon
# ACHN renal = tested on: ACHN renal
# COLO 205 colon = tested on: COLO 205 colon
# RPMI-8226 leukemia = tested on: RPMI-8226 leukemia
# SN12C renal = tested on: SN12C renal
# SF-539 CNS = tested on: SF-539 CNS
# NCI-H23 lung = tested on: NCI-H23 lung
# DU-145 prostate = tested on: DU-145 prostate
# MDA-MB-468 breast = tested on: MDA-MB-468 breast
# A498 renal = tested on: A498 renal
# RXF 393 renal = tested on: RXF 393 renal
# NCI/ADR-RES ovarian = tested on: NCI/ADR-RES ovarian
# KM12 colon = tested on: KM12 colon
# TK-10 renal = tested on: TK-10 renal
# 786-0 renal = tested on: 786-0 renal
# OVCAR-8 ovarian = tested on: OVCAR-8 ovarian
# UACC-257 melanoma = tested on: UACC-257 melanoma
# NCI-H226 lung = tested on: NCI-H226 lung
# UACC-62 melanoma = tested on: UACC-62 melanoma
# MCF7 breast = tested on: MCF7 breast
# HOP-62 NSCLC = tested on: HOP-62 NSCLC
# SF-295 CNS = tested on: SF-295 CNS
# BT-549 breast = tested on: BT-549 breast
# CAKI-1 renal = tested on: CAKI-1 renal
# HCC-2998 colon = tested on: HCC-2998 colon
# HCT-15 colon = tested on: HCT-15 colon
# SK-OV-3 ovarian = tested on: SK-OV-3 ovarian
# MDA-MB-231 breast = tested on: MDA-MB-231 breast
# EKVX NSCLC = tested on: EKVX NSCLC
# SF-268 CNS = tested on: SF-268 CNS
# IGROV1 ovarian = tested on: IGROV1 ovarian
# PC-3 prostate = tested on: PC-3 prostate
# OVCAR-4 ovarian = tested on: OVCAR-4 ovarian
# OVCAR-5 ovarian = tested on: OVCAR-5 ovarian
# SW-620 colon = tested on: SW-620 colon
# NCI-H322M lung = tested on: NCI-H322M lung
# NCI-H522 lung = tested on: NCI-H522 lung
# M14 melanoma = tested on: M14 melanoma
# SK-MEL-28 melanoma = tested on: SK-MEL-28 melanoma
# CCRF-CEM leukemia = tested on: CCRF-CEM leukemia
# SNB-75 CNS = tested on: SNB-75 CNS
# OVCAR-3 ovarian = tested on: OVCAR-3 ovarian
# HT29 colon = tested on: HT29 colon
# A549 NSCLC = tested on: A549 NSCLC
# MALME-3M melanoma = tested on: MALME-3M melanoma
# MDA-MB-435 melanoma = tested on: MDA-MB-435 melanoma
# UO-31 renal = tested on: UO-31 renal
# U251 glioblastoma = tested on: U251 glioblastoma
# HS 578T breast = tested on: HS 578T breast
smiles,measurement,setting,value
Cn1c(=O)c(F)c(Nc2ccc(I)cc2F)c2c(=O)n(C[C@@H](O)CO)cnc21,GI50,T-47D breast,1530 nM
same,TGI,T-47D breast,22.6 µM
same,GI50,LOX IMVI melanoma,< 10 nM
same,TGI,LOX IMVI melanoma,137 nM
same,GI50,K-562 leukemia,11 nM
same,TGI,K-562 leukemia,15.5 µM
same,GI50,SK-MEL-5 melanoma,< 10 nM
same,TGI,SK-MEL-5 melanoma,10.7 µM
same,GI50,MOLT-4 leukemia,4.01 µM
same,TGI,MOLT-4 leukemia,16.3 µM
same,GI50,SNB-19 CNS,783 nM
same,TGI,SNB-19 CNS,34.5 µM
same,GI50,NCI-H460 NSCLC,< 10 nM
same,TGI,NCI-H460 NSCLC,30.6 µM
same,GI50,HOP-92 NSCLC,< 10 nM
same,TGI,HOP-92 NSCLC,179 nM
same,GI50,HCT-116 colon,< 10 nM
same,TGI,HCT-116 colon,164 nM
same,GI50,ACHN renal,1090 nM
same,TGI,ACHN renal,26.9 µM
same,GI50,COLO 205 colon,< 10 nM
same,TGI,COLO 205 colon,< 10 nM
same,GI50,RPMI-8226 leukemia,11.6 µM
same,TGI,RPMI-8226 leukemia,24.8 µM
same,GI50,SN12C renal,< 10 nM
same,TGI,SN12C renal,17.2 µM
same,GI50,SF-539 CNS,215 nM
same,TGI,SF-539 CNS,10.6 µM
same,GI50,NCI-H23 lung,< 10 nM
same,TGI,NCI-H23 lung,29.6 nM
same,GI50,DU-145 prostate,1990 nM
same,TGI,DU-145 prostate,36.7 µM
same,GI50,MDA-MB-468 breast,387 nM
same,TGI,MDA-MB-468 breast,1620 nM
same,GI50,A498 renal,268 nM
same,TGI,A498 renal,12.6 µM
same,GI50,RXF 393 renal,191 nM
same,TGI,RXF 393 renal,10.4 µM
same,GI50,NCI/ADR-RES ovarian,12.7 µM
same,TGI,NCI/ADR-RES ovarian,44.6 µM
same,GI50,KM12 colon,< 10 nM
same,TGI,KM12 colon,13.6 µM
same,GI50,TK-10 renal,1140 nM
same,TGI,TK-10 renal,16.9 µM
same,GI50,786-0 renal,1620 nM
same,TGI,786-0 renal,17.9 µM
same,GI50,OVCAR-8 ovarian,3.68 µM
same,TGI,OVCAR-8 ovarian,18.6 µM
same,GI50,UACC-257 melanoma,< 10 nM
same,TGI,UACC-257 melanoma,< 10 nM
same,GI50,NCI-H226 lung,< 10 nM
same,TGI,NCI-H226 lung,5.39 µM
same,GI50,UACC-62 melanoma,< 10 nM
same,TGI,UACC-62 melanoma,< 10 nM
same,GI50,MCF7 breast,12.4 µM
same,TGI,MCF7 breast,29 µM
same,GI50,HOP-62 NSCLC,< 10 nM
same,TGI,HOP-62 NSCLC,25.2 µM
same,GI50,SF-295 CNS,11.5 µM
same,TGI,SF-295 CNS,25.4 µM
same,GI50,BT-549 breast,2390 nM
same,TGI,BT-549 breast,23.5 µM
same,GI50,CAKI-1 renal,13.3 nM
same,TGI,CAKI-1 renal,19.2 µM
same,GI50,HCC-2998 colon,< 10 nM
same,TGI,HCC-2998 colon,12.8 nM
same,GI50,HCT-15 colon,466 nM
same,TGI,HCT-15 colon,19.6 µM
same,GI50,SK-OV-3 ovarian,3.34 µM
same,TGI,SK-OV-3 ovarian,21.5 µM
same,GI50,MDA-MB-231 breast,< 10 nM
same,TGI,MDA-MB-231 breast,1110 nM
same,GI50,EKVX NSCLC,2080 nM
same,TGI,EKVX NSCLC,25.5 µM
same,GI50,SF-268 CNS,< 10 nM
same,TGI,SF-268 CNS,7.63 µM
same,GI50,IGROV1 ovarian,< 10 nM
same,TGI,IGROV1 ovarian,1110 nM
same,GI50,PC-3 prostate,18.5 µM
same,TGI,PC-3 prostate,53.2 µM
same,GI50,OVCAR-4 ovarian,15.6 µM
same,TGI,OVCAR-4 ovarian,55.8 µM
same,GI50,OVCAR-5 ovarian,< 10 nM
same,TGI,OVCAR-5 ovarian,16.9 µM
same,GI50,SW-620 colon,< 10 nM
same,TGI,SW-620 colon,11.5 µM
same,GI50,NCI-H322M lung,18.5 nM
same,TGI,NCI-H322M lung,16.6 µM
same,GI50,NCI-H522 lung,929 nM
same,TGI,NCI-H522 lung,22.7 µM
same,GI50,M14 melanoma,< 10 nM
same,TGI,M14 melanoma,< 10 nM
same,GI50,SK-MEL-28 melanoma,< 10 nM
same,TGI,SK-MEL-28 melanoma,< 10 nM
same,GI50,CCRF-CEM leukemia,10.6 µM
same,TGI,CCRF-CEM leukemia,22.8 µM
same,GI50,SNB-75 CNS,320 nM
same,TGI,SNB-75 CNS,17.5 µM
same,GI50,OVCAR-3 ovarian,4.32 µM
same,TGI,OVCAR-3 ovarian,19.2 µM
same,GI50,HT29 colon,< 10 nM
same,TGI,HT29 colon,11.6 µM
same,GI50,A549 NSCLC,< 10 nM
same,TGI,A549 NSCLC,9.91 µM
same,GI50,MALME-3M melanoma,< 10 nM
same,TGI,MALME-3M melanoma,< 10 nM
same,GI50,MDA-MB-435 melanoma,< 10 nM
same,TGI,MDA-MB-435 melanoma,19.9 µM
same,GI50,UO-31 renal,181 nM
same,TGI,UO-31 renal,1770 nM
same,GI50,U251 glioblastoma,60.3 nM
same,TGI,U251 glioblastoma,9.75 µM
same,GI50,HS 578T breast,184 nM
same,TGI,HS 578T breast,11 µM
